The supplement of paper PMC10307832

Tests used:
Assay in all cases: relative viability (nuclei count vs DMSO), 5 days (fraction); higher = more cells survive
[1] = compound: CCOC(=O)CCNc1cc(N2CCc3ccccc3CC2)nc(-c2ccccn2)n1 [GSK-J4] + O=C(c1cc(Cc2n[nH]c(=O)c3ccccc23)ccc1F)N1CCN(C(=O)C2CC2)CC1 [Olaparib] (partner 8 µM)
Summary of the method: (§1)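 Lung cancer cell lines, seeded in 1536-well plates, were treated the following day by pin tool with a single drug or with five library-drug doses (not always all listed) in √10 steps on top of a fixed anchor-drug dose. Cells were fixed and nuclei stained in one step after 5 days, and nuclei were counted. Relative viability is the nuclei count for treated wells divided by that for vehicle wells, reported as medians of duplicate plates.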

[2] = compound: CN1CCC(CC1)OC2=CC(=C(C=C2)NC3=NC=C4C(=N3)N(C(=O)N4C)C5CCCC5)OC [AZ3146] + CC(=O)Nc1cccc(-n2c(=O)n(C3CC3)c(=O)c3c(Nc4ccc(I)cc4F)n(C)c(=O)c(C)c32)c1 [Trametinib] (partner 0.02 µM)
Summary of the method: as §1

[3] = compound: CN1CCC(CC1)OC2=CC(=C(C=C2)NC3=NC=C4C(=N3)N(C(=O)N4C)C5CCCC5)OC [AZ3146] + COc1cccc2cc(-c3nc([C@H]4CC[C@H](C(=O)O)CC4)n4ncnc(N)c34)[nH]c12 [OSI-027] (partner 0.5 µM)
Summary of the method: as §1

[4] = compound: CN1CCC(CC1)OC2=CC(=C(C=C2)NC3=NC=C4C(=N3)N(C(=O)N4C)C5CCCC5)OC [AZ3146] + C[C@@H](Oc1cc(-c2cnn(C3CCNCC3)c2)cnc1N)c1c(Cl)ccc(F)c1Cl [Crizotinib] (partner 1 µM)
Summary of the method: as §1

Row | Cell Line | relative viability ([1]; first compound 0.5 µM) | relative viability ([1]; first compound 1.581 µM) | relative viability ([1]; first compound 5 µM) | relative viability ([1]; first compound 15.81 µM) | relative viability ([1]; first compound 50 µM) | relative viability ([2]; first compound 0.08 µM) | relative viability ([2]; first compound 0.253 µM) | relative viability ([2]; first compound 0.8 µM) | relative viability ([2]; first compound 2.53 µM) | relative viability ([2]; first compound 8 µM) | relative viability ([3]; first compound 0.08 µM) | relative viability ([3]; first compound 0.253 µM) | relative viability ([3]; first compound 0.8 µM) | relative viability ([3]; first compound 2.53 µM) | relative viability ([3]; first compound 8 µM) | relative viability ([4]; first compound 0.08 µM) | relative viability ([4]; first compound 0.253 µM) | relative viability ([4]; first compound 0.8 µM) | relative viability ([4]; first compound 2.53 µM) | relative viability ([4]; first compound 8 µM)
1 | HCC-15 | 0.702 | 0.632 | 0.644 | 0.644 | 0.424 | 0.421 | 0.346 | 0.357 | 0.414 | 0.348 | 0.689 | 0.667 | 0.481 | 0.773 | 0.578 | 0.83 | 0.863 | 0.768 | 0.677 | 0.445
2 | NCI-H650 | 0.356 | 0.371 |  | 0.272 | 0.296 | 0.899 | 0.959 | 0.959 | 0.994 | 1.09 | 0.504 | 0.461 | 0.359 | 0.588 | 0.506 | 0.571 | 0.721 | 0.827 | 0.781 | 0.542
3 | NCI-H1651 | 0.178 | 0.158 | 0.184 | 0.182 | 0.18 | 0.736 | 0.779 | 0.833 | 0.789 | 0.797 | 0.657 | 0.745 | 0.66 | 0.692 | 0.639 | 0.671 | 0.811 | 0.912 | 0.844 | 0.871
4 | NCI-H2405 | 0.849 | 0.836 |  | 0.815 | 0.777 | 0.731 | 0.537 | 0.666 | 0.663 | 0.676 | 0.652 | 0.62 | 0.582 | 0.696 | 0.641 | 0.808 | 0.842 | 0.733 | 0.899 | 0.798
5 | LU99A | 0.248 | 0.265 |  | 0.207 | 0.205 |  | 0.501 | 0.567 | 0.68 | 0.579 | 0.28 | 0.306 | 0.309 | 0.317 | 0.228 | 0.502 | 0.584 | 0.555 | 0.555 | 0.452
6 | H3255 | 0.553 | 0.521 | 0.523 | 0.445 | 0.362 | 0.649 | 0.57 | 0.555 | 0.614 | 0.544 | 0.654 | 0.483 | 0.594 | 0.612 | 0.638 | 0.841 | 0.884 | 0.886 | 1.03 | 0.442
7 | NCI-H1993 | 1.21 | 0.885 | 1.1 | 0.952 | 1.01 | 0.562 | 0.508 | 0.472 | 0.519 | 0.469 | 0.531 | 0.579 | 0.541 | 0.531 | 0.543 | 0.876 | 0.847 | 0.813 | 0.879 | 0.84
8 | NCI-H322M | 0.829 | 0.729 | 0.935 | 0.782 | 0.658 | 0.555 | 0.45 | 0.435 | 0.537 | 0.527 | 0.51 | 0.581 | 0.509 | 0.601 | 0.48 | 0.683 | 0.876 | 0.9 | 0.763 | 0.6
9 | NCI-H460 | 0.384 |  |  | 0.433 | 0.343 | 0.132 | 0.134 | 0.0913 | 0.0867 | 0.107 | 0.636 | 0.72 | 0.622 | 0.622 | 0.423 | 0.729 | 0.844 | 0.664 | 0.11 | 0.0243
10 | NCI-H358 | 0.574 |  | 0.646 | 0.521 | 0.552 | 0.162 | 0.123 | 0.139 | 0.127 | 0.12 | 0.762 | 0.753 | 0.661 | 0.82 | 0.431 | 0.587 | 0.616 | 0.425 | 0.398 | 0.177
11 | LCLC-103H | 0.8 | 0.685 | 0.776 | 0.654 | 0.646 | 0.619 | 0.663 | 0.721 | 0.666 | 0.653 | 0.423 | 0.474 | 0.529 | 0.456 | 0.501 | 0.987 | 1.08 | 0.984 | 1.08 | 1.11
12 | SK-MES-1 | 0.675 | 0.641 | 0.727 | 0.626 | 0.22 | 0.549 | 0.579 | 0.585 | 0.555 | 0.544 | 0.659 | 0.621 | 0.568 | 0.569 | 0.452 | 0.936 | 1.03 | 0.97 | 1.12 | 1.05
13 | PC-3 [JPC-3] | 1.06 | 1.06 | 0.996 | 1.07 | 0.801 | 0.709 |  | 0.596 | 0.728 | 0.626 | 0.624 | 0.792 | 0.789 | 0.77 | 0.776 | 0.912 | 0.983 | 0.974 | 1.03 | 0.984
14 | COR-L 105 | 0.701 |  | 0.641 | 0.672 | 0.764 | 0.471 | 0.414 | 0.477 | 0.427 | 0.353 | 0.63 | 0.653 | 0.587 | 0.641 | 0.404 | 0.756 | 0.745 | 0.508 | 0.518 | 0.332
15 | EKVX | 0.867 |  | 0.859 | 0.681 | 0.703 | 0.331 | 0.305 | 0.202 | 0.345 | 0.332 | 0.72 | 0.653 | 0.629 | 0.63 | 0.687 | 0.957 | 1.12 | 1.06 | 1.1 | 0.365
